Results as given in ChEMBL document CHEMBL1151042, “5-HT4receptor antagonists : oxazolo, oxazino and oxazepino[3,2-a]indole derivatives” (Bioorg Med Chem Lett, 1994).

Legend:
[1] = molecular target: 5-hydroxytryptamine receptor 4 (Cavia porcellus, UniProt O70528); assay: Ability to block 5-HT4 receptor mediated effect of 5-HT was assessed in the guinea-pig distal colon longitudinal muscle myenteric plexus preparation (LMMP)
[2] = molecular target: Serotonin 4 (5-HT4) receptor (Sus scrofa, UniProt Q6Q253); assay: Compound was evaluated for its ability to inhibit the binding of 5-HT4 receptor radioligand [125I]SB 207710 to piglet hippocampal membrane; assay type: tissue-based, Hippocampus
Serotonin 4 (5-HT4) receptor, sequence (Q6Q253 whole entry): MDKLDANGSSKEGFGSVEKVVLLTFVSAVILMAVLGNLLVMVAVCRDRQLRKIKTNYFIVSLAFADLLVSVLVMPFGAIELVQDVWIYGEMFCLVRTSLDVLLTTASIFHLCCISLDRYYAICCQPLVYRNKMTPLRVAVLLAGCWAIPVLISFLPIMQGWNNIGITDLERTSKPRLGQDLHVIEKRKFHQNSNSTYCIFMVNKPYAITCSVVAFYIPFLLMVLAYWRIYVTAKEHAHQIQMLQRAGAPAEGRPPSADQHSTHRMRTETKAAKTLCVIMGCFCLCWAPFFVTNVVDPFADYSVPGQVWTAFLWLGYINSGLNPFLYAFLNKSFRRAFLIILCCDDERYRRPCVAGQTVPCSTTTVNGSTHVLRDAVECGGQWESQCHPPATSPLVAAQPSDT

5-hydroxytryptamine receptor 4, sequence (O70528 whole entry): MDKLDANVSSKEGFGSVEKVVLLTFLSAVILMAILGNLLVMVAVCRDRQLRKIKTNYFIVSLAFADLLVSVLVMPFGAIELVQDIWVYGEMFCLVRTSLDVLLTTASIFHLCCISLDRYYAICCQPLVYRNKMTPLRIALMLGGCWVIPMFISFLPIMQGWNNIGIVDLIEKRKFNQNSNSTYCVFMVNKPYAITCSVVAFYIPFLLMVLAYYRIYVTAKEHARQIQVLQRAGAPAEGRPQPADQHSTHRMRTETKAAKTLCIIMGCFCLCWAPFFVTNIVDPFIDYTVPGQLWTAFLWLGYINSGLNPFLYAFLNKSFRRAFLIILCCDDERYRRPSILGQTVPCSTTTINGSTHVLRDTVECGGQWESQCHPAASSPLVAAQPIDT

Row | IC50 [1] | Ki [2] | Structure (SMILES)
1 | 0.0794 nM | 0.126 nM | CCCCN1CCC(COC(=O)c2cc(Cl)c(N)c3c2OCCO3)CC1
2 | 0.501 nM | 2.51 nM | CCCCN1CCC(COC(=O)c2c[nH]c3ccccc23)CC1
3 | 0.158 nM | 0.2 nM | CCCCN1CCC(COC(=O)c2c3n(c4ccccc24)CCCCO3)CC1

The remaining lines, values behind:

Row | Structure (SMILES) | IC50 [1] | Ki [2]
4 | CCCCN1CCC(COC(=O)c2c3n(c4ccccc24)CCO3)CC1 | 0.1 nM | 0.0794 nM
5 | CCCCN1CCC(COC(=O)c2c3n(c4ccccc24)CCCO3)CC1 | 0.0251 nM | 0.0631 nM
